Experimental data published in PubChem BioAssay (NCI).
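A five-concentration, 48-hour dose response in 96-well plates underlies each endpoint, interpolated linearly between surrounding concentrations. Here, GI50 denotes the concentration required for 50% inhibition of growth. At the TGI there is no net growth.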

How the values were obtained:
Assay in all cases: inhibition of tumour cell growth, NCI panel, 48 h
786-0 renal = test system: 786-0 renal
A498 renal = test system: A498 renal
A549 NSCLC = test system: A549 NSCLC
ACHN renal = test system: ACHN renal
BT-549 breast = test system: BT-549 breast
CAKI-1 renal = test system: CAKI-1 renal
CCRF-CEM leukemia = test system: CCRF-CEM leukemia
COLO 205 colon = test system: COLO 205 colon
DU-145 prostate = test system: DU-145 prostate
EKVX NSCLC = test system: EKVX NSCLC
HCC-2998 colon = test system: HCC-2998 colon
HCT-116 colon = test system: HCT-116 colon
HCT-15 colon = test system: HCT-15 colon
HL-60(TB) leukemia = test system: HL-60(TB) leukemia
HOP-62 NSCLC = test system: HOP-62 NSCLC
HOP-92 NSCLC = test system: HOP-92 NSCLC
HS 578T breast = test system: HS 578T breast
HT29 colon = test system: HT29 colon
IGROV1 ovarian = test system: IGROV1 ovarian
K-562 leukemia = test system: K-562 leukemia
KM12 colon = test system: KM12 colon
LOX IMVI melanoma = test system: LOX IMVI melanoma
M14 melanoma = test system: M14 melanoma
MALME-3M melanoma = test system: MALME-3M melanoma
MCF7 breast = test system: MCF7 breast
MDA-MB-231 breast = test system: MDA-MB-231 breast
MDA-MB-435 = test system: MDA-MB-435
MOLT-4 leukemia = test system: MOLT-4 leukemia
NCI-H226 lung = test system: NCI-H226 lung
NCI-H23 lung = test system: NCI-H23 lung
NCI-H460 lung = test system: NCI-H460 lung
NCI-H522 lung = test system: NCI-H522 lung
NCI/ADR-RES ovarian = test system: NCI/ADR-RES ovarian
OVCAR-3 ovarian = test system: OVCAR-3 ovarian
OVCAR-4 ovarian = test system: OVCAR-4 ovarian
OVCAR-5 ovarian = test system: OVCAR-5 ovarian
OVCAR-8 ovarian = test system: OVCAR-8 ovarian
PC-3 prostate = test system: PC-3 prostate
RPMI-8226 leukemia = test system: RPMI-8226 leukemia
RXF 393 renal = test system: RXF 393 renal
SF-268 CNS = test system: SF-268 CNS
SF-295 CNS = test system: SF-295 CNS
SF-539 CNS = test system: SF-539 CNS
SK-MEL-2 melanoma = test system: SK-MEL-2 melanoma
SK-MEL-28 melanoma = test system: SK-MEL-28 melanoma
SK-MEL-5 melanoma = test system: SK-MEL-5 melanoma
SK-OV-3 ovarian = test system: SK-OV-3 ovarian
SN12C renal = test system: SN12C renal
SW-620 colon = test system: SW-620 colon
T-47D breast = test system: T-47D breast
TK-10 renal = test system: TK-10 renal
U251 CNS = test system: U251 CNS
UACC-257 melanoma = test system: UACC-257 melanoma
UACC-62 melanoma = test system: UACC-62 melanoma
UO-31 renal = test system: UO-31 renal

**Q.** `C=CCC(N[C@@H](CO)c1ccccc1)c1cn(C(=O)OCC)c2ccccc12` (stereo not given in full) was tested. Which GI50 (786-0 renal) did it give?
**A.** 18 µM

**Q.** And the TGI (786-0 renal)?
**A.** 36.7 µM

**Q.** And the GI50 (A498 renal)?
**A.** 25.9 µM

**Q.** What about the TGI (A498 renal) of the same compound?
**A.** 61.6 µM

**Q.** And the GI50 (A549 NSCLC)?
**A.** 34.7 µM

**Q.** And the TGI (A549 NSCLC)?
**A.** > 100 µM

**Q.** And the GI50 (ACHN renal)?
**A.** 24.3 µM

**Q.** And the TGI (ACHN renal)?
**A.** 63 µM

**Q.** And the GI50 (BT-549 breast)?
**A.** 32.9 µM

**Q.** What about the TGI (BT-549 breast) of the same compound?
**A.** > 100 µM

**Q.** What about the GI50 (CAKI-1 renal) of the same compound?
**A.** 13.6 µM

**Q.** What about the TGI (CAKI-1 renal) of the same compound?
**A.** 53.5 µM

**Q.** And the GI50 (CCRF-CEM leukemia)?
**A.** 19.2 µM

**Q.** What about the TGI (CCRF-CEM leukemia) of the same compound?
**A.** 56.7 µM

**Q.** And the GI50 (COLO 205 colon)?
**A.** 20.1 µM

**Q.** And the TGI (COLO 205 colon)?
**A.** 44.1 µM

**Q.** And the GI50 (DU-145 prostate)?
**A.** 27.6 µM

**Q.** What about the TGI (DU-145 prostate) of the same compound?
**A.** 86 µM

**Q.** What about the GI50 (EKVX NSCLC) of the same compound?
**A.** 35.3 µM

**Q.** What about the TGI (EKVX NSCLC) of the same compound?
**A.** > 100 µM

**Q.** What about the GI50 (HCC-2998 colon) of the same compound?
**A.** 16.3 µM

**Q.** And the TGI (HCC-2998 colon)?
**A.** 31.8 µM

**Q.** What about the GI50 (HCT-116 colon) of the same compound?
**A.** 15.5 µM

**Q.** What about the TGI (HCT-116 colon) of the same compound?
**A.** 29.3 µM

**Q.** And the GI50 (HCT-15 colon)?
**A.** 18.9 µM

**Q.** And the TGI (HCT-15 colon)?
**A.** 40.8 µM

**Q.** What about the GI50 (HL-60(TB) leukemia) of the same compound?
**A.** 24.1 µM

**Q.** What about the TGI (HL-60(TB) leukemia) of the same compound?
**A.** > 100 µM

**Q.** What about the GI50 (HOP-62 NSCLC) of the same compound?
**A.** 20.4 µM

**Q.** What about the TGI (HOP-62 NSCLC) of the same compound?
**A.** 45.8 µM

**Q.** And the GI50 (HOP-92 NSCLC)?
**A.** 16.5 µM

**Q.** And the TGI (HOP-92 NSCLC)?
**A.** 39.8 µM

**Q.** What about the GI50 (HS 578T breast) of the same compound?
**A.** 21 µM

**Q.** And the TGI (HS 578T breast)?
**A.** 40.3 µM

**Q.** What about the GI50 (HT29 colon) of the same compound?
**A.** 23.3 µM

**Q.** And the TGI (HT29 colon)?
**A.** 62.7 µM

**Q.** And the GI50 (IGROV1 ovarian)?
**A.** 23.1 µM

**Q.** And the TGI (IGROV1 ovarian)?
**A.** > 100 µM

**Q.** What about the GI50 (K-562 leukemia) of the same compound?
**A.** 22.6 µM

**Q.** What about the TGI (K-562 leukemia) of the same compound?
**A.** > 100 µM

**Q.** And the GI50 (KM12 colon)?
**A.** 15.2 µM

**Q.** And the TGI (KM12 colon)?
**A.** 33.6 µM

**Q.** What about the GI50 (LOX IMVI melanoma) of the same compound?
**A.** 16.7 µM

**Q.** What about the TGI (LOX IMVI melanoma) of the same compound?
**A.** 32.2 µM

**Q.** What about the GI50 (M14 melanoma) of the same compound?
**A.** 18.1 µM

**Q.** And the TGI (M14 melanoma)?
**A.** 34.4 µM

**Q.** What about the GI50 (MALME-3M melanoma) of the same compound?
**A.** 17.1 µM

**Q.** What about the TGI (MALME-3M melanoma) of the same compound?
**A.** 39.1 µM

**Q.** And the GI50 (MCF7 breast)?
**A.** 29.4 µM

**Q.** And the TGI (MCF7 breast)?
**A.** > 100 µM

**Q.** And the GI50 (MDA-MB-231 breast)?
**A.** 20.6 µM

**Q.** And the TGI (MDA-MB-231 breast)?
**A.** 43.5 µM

**Q.** What about the GI50 (MDA-MB-435) of the same compound?
**A.** 22.7 µM

**Q.** And the TGI (MDA-MB-435)?
**A.** 55.9 µM

**Q.** What about the GI50 (MOLT-4 leukemia) of the same compound?
**A.** 15.5 µM

**Q.** And the TGI (MOLT-4 leukemia)?
**A.** > 100 µM

**Q.** And the GI50 (NCI-H226 lung)?
**A.** 23.1 µM

**Q.** What about the TGI (NCI-H226 lung) of the same compound?
**A.** 48.7 µM

**Q.** What about the GI50 (NCI-H23 lung) of the same compound?
**A.** 20.5 µM

**Q.** And the TGI (NCI-H23 lung)?
**A.** 49.6 µM

**Q.** What about the GI50 (NCI-H460 lung) of the same compound?
**A.** 26.2 µM

**Q.** What about the TGI (NCI-H460 lung) of the same compound?
**A.** 70.1 µM

**Q.** What about the GI50 (NCI-H522 lung) of the same compound?
**A.** 21.9 µM

**Q.** And the TGI (NCI-H522 lung)?
**A.** 46.8 µM

**Q.** What about the GI50 (NCI/ADR-RES ovarian) of the same compound?
**A.** 18.9 µM

**Q.** And the TGI (NCI/ADR-RES ovarian)?
**A.** 55.5 µM

**Q.** What about the GI50 (OVCAR-3 ovarian) of the same compound?
**A.** 15.8 µM

**Q.** What about the TGI (OVCAR-3 ovarian) of the same compound?
**A.** 31.7 µM

**Q.** What about the GI50 (OVCAR-4 ovarian) of the same compound?
**A.** 81.5 µM

**Q.** What about the TGI (OVCAR-4 ovarian) of the same compound?
**A.** > 100 µM

**Q.** And the GI50 (OVCAR-5 ovarian)?
**A.** 23.3 µM

**Q.** And the TGI (OVCAR-5 ovarian)?
**A.** 66.1 µM

**Q.** What about the GI50 (OVCAR-8 ovarian) of the same compound?
**A.** 31.7 µM

**Q.** And the TGI (OVCAR-8 ovarian)?
**A.** > 100 µM

**Q.** And the GI50 (PC-3 prostate)?
**A.** 22.3 µM

**Q.** What about the TGI (PC-3 prostate) of the same compound?
**A.** > 100 µM

**Q.** What about the GI50 (RPMI-8226 leukemia) of the same compound?
**A.** 17.9 µM

**Q.** What about the TGI (RPMI-8226 leukemia) of the same compound?
**A.** 52.3 µM

**Q.** What about the GI50 (RXF 393 renal) of the same compound?
**A.** 22.8 µM

**Q.** And the TGI (RXF 393 renal)?
**A.** 84.2 µM

**Q.** What about the GI50 (SF-268 CNS) of the same compound?
**A.** 23 µM

**Q.** What about the TGI (SF-268 CNS) of the same compound?
**A.** 54.5 µM

**Q.** And the GI50 (SF-295 CNS)?
**A.** 20.8 µM

**Q.** What about the TGI (SF-295 CNS) of the same compound?
**A.** 53.9 µM

**Q.** And the GI50 (SF-539 CNS)?
**A.** 20.6 µM

**Q.** And the TGI (SF-539 CNS)?
**A.** 37.3 µM

**Q.** What about the GI50 (SK-MEL-2 melanoma) of the same compound?
**A.** 33.7 µM

**Q.** What about the TGI (SK-MEL-2 melanoma) of the same compound?
**A.** > 100 µM

**Q.** What about the GI50 (SK-MEL-28 melanoma) of the same compound?
**A.** 34.1 µM

**Q.** What about the TGI (SK-MEL-28 melanoma) of the same compound?
**A.** > 100 µM

**Q.** What about the GI50 (SK-MEL-5 melanoma) of the same compound?
**A.** 14.2 µM

**Q.** And the TGI (SK-MEL-5 melanoma)?
**A.** 28.9 µM

**Q.** And the GI50 (SK-OV-3 ovarian)?
**A.** 49.1 µM

**Q.** What about the TGI (SK-OV-3 ovarian) of the same compound?
**A.** > 100 µM

**Q.** And the GI50 (SN12C renal)?
**A.** 21.4 µM

**Q.** What about the TGI (SN12C renal) of the same compound?
**A.** 39.2 µM

**Q.** What about the GI50 (SW-620 colon) of the same compound?
**A.** 28.6 µM

**Q.** What about the TGI (SW-620 colon) of the same compound?
**A.** > 100 µM

**Q.** And the GI50 (T-47D breast)?
**A.** 25.8 µM

**Q.** What about the TGI (T-47D breast) of the same compound?
**A.** > 100 µM

**Q.** And the GI50 (TK-10 renal)?
**A.** 23.2 µM

**Q.** And the TGI (TK-10 renal)?
**A.** 73.6 µM

**Q.** And the GI50 (U251 CNS)?
**A.** 17.9 µM

**Q.** What about the TGI (U251 CNS) of the same compound?
**A.** 32.4 µM

**Q.** What about the GI50 (UACC-257 melanoma) of the same compound?
**A.** 22.9 µM

**Q.** What about the TGI (UACC-257 melanoma) of the same compound?
**A.** 66 µM

**Q.** What about the GI50 (UACC-62 melanoma) of the same compound?
**A.** 30.4 µM

**Q.** What about the TGI (UACC-62 melanoma) of the same compound?
**A.** 98.4 µM

**Q.** And the GI50 (UO-31 renal)?
**A.** 32.3 µM

**Q.** What about the TGI (UO-31 renal) of the same compound?
**A.** > 100 µM
